Data set [1] relates to mouse vibrissae. In words: Hair growth induction in organ-cultured mouse vibrissae. Particulars: vibrissae cultured 3 days at 37° C.; for degree of hair growth induction (efficacy of promoting hair growth): vs untreated group; for degree of hair growth induction (effect of promoting hair growth): compared to inactive type necrostatin-1, FIG. 1; for degree of hair growth induction: siRNA treatment, vs control siRNA, FIG. 6. The class given is cell-based, mouse (C57BL/6 female mice). The method, then: Specifically, the vibrissae of C57BL/6 female mice were trimmed and organ cultured. […] The vibrissae of the three treatment groups were treated with 10 μM, respectively, and then cultured for 3 days in an incubator at 37° C.
Specifically, the vibrissae of C57BL/6 female mice were trimmed and organ cultured. The trimmed vibrissae were cultured in a 48-well plate so as to become one per well, and divided into a total of 3 groups: the untreated group (control group), the group treated with 1 μM sibiriline, and the group treated with 10 μM sibiriline. The vibrissae were treated, respectively, and then cultured for 3 days in an incubator at 37° C.
Specifically, the vibrissae of C57BL/6 female mice were trimmed and organ cultured. The trimmed vibrissae were cultured in a 48-well plate so as to become one per well, and divided into a total of 3 groups: the untreated group (control group), the group treated with 1 μM GSK963, and the group treated with 10 μM GSK963. The vibrissae were treated, respectively, and then cultured for 3 days in an incubator at 37° C.
Specifically, the vibrissae of C57/BL6 female mice were trimmed and organ cultured. The trimmed vibrissae were cultured in a 48-well plate so as to become one per well, and divided into a total of 4 groups: the untreated group (control group), the group treated with 1 μM GSK2982772, the group treated with 10 μM GSK2982772, and the group treated with 50 μM GSK2982772. The vibrissae were treated, respectively, and then cultured for 3 days in an incubator at 37° C.
Specifically, the vibrissae of C57BL/6 female mice were trimmed and organ cultured. The trimmed vibrissae were cultured in a 48-well plate so as to become one per well, and divided into a total of 3 groups: the group treated with RIPK1 siRNA, the group treated with RIPK3 siRNA, and the group treated with control siRNA (control group) in Table 1. The vibrissae were treated, respectively, and then cultured for 3 days in an incubator at 37° C.

Data set [2] deals with C3H/HeN mice. In words: Hair regrowth on the back of depilated mice after topical application. Particulars: 100 μl applied to the back, 13 days, FIG. 2. In kind it is in vivo, mouse (C3H/HeN, male). From the text: The hairs of ten 6-week-old male C3H/HeN mice were shaved short using a depilatory machine, and the remaining hairs were completely removed using a depilatory agent, and then they were stabilized for one day before use in the experiment.
Mice were divided into 5 mice per group under the following conditions to conduct an experiment.
After 13 days, the hairs on the back of the mouse in which hair regrowth occurred were shaved using a razor, and then the hairs were obtained, and the weight was measured.

With `CC(C)(C)C(=O)N1N=CCC1c1ccccc1` (stereo not shown) [GSK963], the “degree of hair growth induction (efficacy of promoting hair growth)” value (shortened to “degree … (efficacy of promoting hair growth)”) in data set [1] (1 μM) and in data set [1] (10 μM) was “excellent efficacy of promoting hair growth” throughout. As to `CN1C(=O)[C@@H](NC(=O)c2nnc(Cc3ccccc3)[nH]2)COc2ccccc21` [GSK2982772], the “degree … (efficacy of promoting hair growth)” value in data set [1] (1 μM), in data set [1] (10 μM) and in data set [1] (50 μM) was “excellent efficacy of promoting hair growth” throughout.

With `CN1C(=O)C(Cc2c[nH]c3ccccc23)NC1=S` (stereo not shown) [necrostatin-1], the “degree of hair growth induction (effect of promoting hair growth)” value in data set [1] (10 μM) was “excellent effect of promoting hair growth compared to the inactive type necrostatin-1”. Consider `CN1C(=O)NC(Cc2c[nH]c3c(Cl)cccc23)C1=O` (stereo not shown) [necrostatin-1s], for which, in data set [1] (10 μM), the “degree of hair growth induction (effect of promoting hair growth)” value is “excellent effect of promoting hair growth compared to the inactive type necrostatin-1”. Further, in data set [2] (100 μM, vs 2% minoxidil group), the “effect of inducing hair growth (appearance of hair growth and weight of the hair)” value was “more excellent effect of inducing hair growth compared to the group administered with commercially available minoxidil”. Moreover, in data set [2] (group administered with necrostatin-1s (10 μM or 100 μM), vs untreated control group), the “hair growth effect (appearance of hair growth and weight of the hair)” value is “excellent hair growth effect compared to the untreated control group”. Regarding `Oc1ccc(-c2cc3cccnc3[nH]2)cc1` [sibiriline], the “degree … (efficacy of promoting hair growth)” value in data set [1] (1 μM) and in data set [1] (10 μM) was “excellent efficacy of promoting hair growth” throughout.

With “RIPK1 siRNA: siRNA of SEQ ID NO: 1 and 2 capable of inhibiting RIP kinase expression (chain 1 GUCCUUGUGUUACCACAGA; chain 2 UCUGUGGUAACACAAGGAC; listed as RNA, chemistry not given here)”, the “degree of hair growth induction” value in data set [1] is recorded as “hair growth was promoted”. On to “RIPK3 siRNA: siRNA of SEQ ID NO: 3 and 4 capable of inhibiting RIP kinase expression (chain 1 CGAGUGAUGUCUACAGCUU; chain 2 AAGCUGUAGACAUCACUCG; listed as RNA, chemistry not given here)”, for which the “degree of hair growth induction” value in data set [1] is recorded as “hair growth was promoted”.
